Measured values reported in article PMC11219860, “A chemogenetic approach for dopamine imaging with tunable sensitivity” (Nature Communications, 2024).

Experiments:
dLight1.3bL143I = dLight1.3bL143I (Homo sapiens, UniProt P21728, L143I); test: cell-based; type: cell-based
Method: (§1) Cells were transfected at 50–60% confluency in glass-bottomed dishes (either individually or in 24-well plates) using the Effectene transfection kit (Qiagen) according to manufacturer instructions, and imaged 24–48 h after transfection. The Flp-In™ T-REx™ 293 cells (Thermo Fisher) with a stably integrated dLight1.3b cassette[48] were cultured as follows: the cells were cultured using HEK293T cell medium with the addition of Blasticidin (15 µg/ml) and Hygromycin B (200 µg/ml). To induce the expression of dLight1.3b, doxycycline (500 ng/ml) was added to the culture medium for 24–48 hours. Before imaging, cells were rinsed with 1 mL of Hank’s Balanced Salt Solution (HBSS, Life Technologies) supplemented with Ca^2+ (2 mM) and Mg^2+ (1 mM), and imaged at room temperature with a final HBSS volume of either 100 µL for each individual 1.5 cm glass bottom dish, or 500 µL for 24-well plates. Time-lapse imaging was performed on an inverted Zeiss LSM 800 confocal microscope using a 488 nm laser and a 40X oil-based objective. During imaging, ligands were added in bolus on the cells using a micropipette to reach the final specified concentrations of ligand over the cells. For quantification, except otherwise noted, regions of interest (ROI) were selected manually using the threshold function of Fiji to isolate the cell membrane. Sensor response (∆F/F) was calculated as the following: (F(t)-F_base)/F_base with F(t) being the ROI fluorescence value at each time point (t), and F_base being the mean fluorescence of the 10-time points immediately prior to ligand addition.

AlloLite-ctr = AlloLite-ctr (Homo sapiens, UniProt P21728, L143A/R130Q); type: cell-based
Method: as §1, with “Time-lapse imaging was performed on an inverted Zeiss LSM 800 confocal microscope using a 488 nm laser and a 40X oil-based objective. During imaging, ligands were added in bolus on the cells using a micropipette to reach the final specified concentrations of ligand over the cells.” left out

DRD1-MSNs = test: Whole-cell electrophysiology of DRD1-MSNs in dorsal striatum brain slices; type: cell-based, mouse
Method: For experiments involving SKF38393 application, to identify DRD1 receptor (DRD1)-positive neurons in the dorsal striatum, DRD1:cre mice injected with AAV5-hSyn-dlox-ChrimsonR-tdTomato were used. 3–4 weeks after viral injection, mice were anesthetized with 5% isoflurane and euthanized by decapitation. […] Slices were kept at 34 °C for 10–20 minutes and then at room temperature until recordings. In the recording chamber, slices were superfused with ACSF at 30–32 °C. Patch pipettes (3–7 MΩ) were pulled from borosilicate glass pipettes (GC150T-10, Harvard Apparatus). The internal solution contained (in mM): potassium gluconate 130, MgCl2 4, MgATP 3.4, Na3GTP 0.1, creatine phosphate 10, HEPES 5, and EGTA 1.1. The membrane potential was measured using EPC 10 USB Patch Clamp Amplifiers (HEKA). The access resistance was monitored by a hyperpolarizing step of −10 mV. The identification of DRD1-positive neurons was performed by the presence of red fluorescence protein and photo-evoked current or potential (@2 Hz, 10 ms duration, 2 pulses or 500 ms continuous pulse. light source: Colibri 7, Zeiss; 630 nm wavelength, 1 mW). To assess the excitability of neurons, positive currents were injected (0–500 pA) and the number of action potentials was counted at each current step. To measure input resistance, negative currents were injected (−200 to 0 pA, every 50 pA, 500 ms), as previously described. The resting membrane potential was measured at 0 pA current input.
Action potentials were evoked by current injection (50–500 pA, 500 ms) in current-clamped neurons. Neurons were recorded from in the presence of picrotoxin (100 µM), CGP55485 (0.3 µM), DNQX (10 µM), and MK801 (10 µM) to block GABAA, GABAB, AMPA and NMDA receptors, respectively. DA (10 µM) was applied to brain slices in the presence of cocaine (5 µM) to prevent reuptake.

[1] = DA 100 µM, wide range of DETQ concentrations

dLight1.3bL143I, sequence (P21728 whole entry L143I, looked up): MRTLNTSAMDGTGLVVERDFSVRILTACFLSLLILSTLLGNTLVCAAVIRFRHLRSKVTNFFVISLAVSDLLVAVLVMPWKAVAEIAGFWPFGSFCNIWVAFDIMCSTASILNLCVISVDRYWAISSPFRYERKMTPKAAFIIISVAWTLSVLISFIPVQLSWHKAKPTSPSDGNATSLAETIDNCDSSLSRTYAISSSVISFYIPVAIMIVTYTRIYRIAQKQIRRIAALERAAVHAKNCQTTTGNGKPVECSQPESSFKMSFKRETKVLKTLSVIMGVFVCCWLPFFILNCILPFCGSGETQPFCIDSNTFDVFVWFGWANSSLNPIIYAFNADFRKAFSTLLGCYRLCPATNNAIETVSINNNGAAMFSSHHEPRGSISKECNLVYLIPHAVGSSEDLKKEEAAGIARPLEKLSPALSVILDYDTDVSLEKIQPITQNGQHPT

C[C@H]1c2cccc(C(C)(C)O)c2C[C@H](CO)N1C(=O)Cc1c(Cl)cccc1Cl [DETQ, 2-(2,6-dichlorophenyl)-1-((1S,3R)-3-(hydroxymethyl)-5-(2-hydroxypropan-2-yl)-1-methyl-3,4-dihydroisoquinolin-2(1H)-yl)ethan-1-one]
Kb (dLight1.3bL143I): 17.7 nM
sensor response to DETQ in the absence of DA (dLight1.3bL143I): could not trigger a response
α factor (dLight1.3bL143I): 10.8
maximal fluorescent response to a saturating concentration of DA (dLight1.3bL143I; [1]): not affected
increase in DETQ potency versus dLight1.3b (dLight1.3bL143I; human, hek293 cells): 3 fold
α factor (AlloLite-ctr): 1.6
maximal fluorescent response to a saturating concentration of DA (AlloLite-ctr; [1]): not affected
number of action potentials: DA with versus without DETQ (DRD1-MSNs; DA 10 µM, DETQ 200 nM): no significant difference
resting membrane potential or excitability of DRD1-MSNs (DRD1-MSNs; DETQ 200 nM superfusion): No noticeable changes
